In patent US20210293788A1, “METHOD FOR IDENTIFYING A CHEMICAL COMPOUND OR AGENT INDUCING UBIQUITINATION OF A PROTEIN OF INTEREST” (CeMM - Forschungszentrum fur Molekulare Medizin GmbH, priority 2018, published 2021):
Entries after “also recorded” stand apart in the source; their conditions may differ.

What was measured:
CRBN [1] = target: T1, CRBN (Homo sapiens, UniProt Q96SW2); test: Re-stabilization of CRBN by small-molecule degraders after CSN5i-3 pretreatment (western blot); type: cell-based; details: WT cells pretreated 2 h with DMSO, 25, 100 or 500 nM CSN5i-3, then 500 nM compound
T1 construct: endogenous in cells; host or cells: wild-type cells (KBM7 by context)
Description: To explore the re-stabilization of SR upon ligand treatment, WT cells were pretreated with different doses of CSN5i-3 for 2h to firstly induce SR autodegradation. As a proof of principle, the SR CRBN was used, and the autodegradation by WB was checked (FIG. 2B-D).

CRBN [2] = target: T1, CRBN; test: Stabilization of CRBN by CC-885 pretreatment followed by CSN5i-3 (western blot); type: cell-based; details: 125 nM CC-885 for 15 or 30 min before 100 nM CSN5i-3 for 2 hours
Description: Cells were first pretreated with the small-molecule (CC-885) known to recruit a new substrate (GSPT1=Eukaryotic peptide chain release factor GTP-binding subunit ERF3A) to the substrate receptor CRBN of the CRL4^CRBN ligase. Pre-treatment was conducted for either 15 or 30 minutes. Afterwards, cells were treated with the CSN (COP9 signalosome) inhibitor (CNS5i-3) for 2 hours. […] This was shown in FIG. 3 by comparing lane 2 of the CRBN blot (pre-treatment with DMSO/vehicle control) to lanes 4 (15 min pre-treatment) and lane 6 (30 min pre-treatment) of the same western blot. The same blot also documents that the present invention provides for means and methods how to determine the neddylation status of cullins constituting CRLs. As evident from FIG. 3, cells comprising a normal neddylation status or a steady-state neddylation status show two bands corresponding to a non-neddylated and a neddylated cullin, respectively. Average increase of neddylated to non-neddylated approximately 9 kDa. […]

KBM7 cells = test: Dose-ranging cellular viability assays in neddylation-impaired isogenic KBM7 cells; type: cell-based, human; details: for Cytotoxic activity / sensitivity in COPS8- or CAND1-modified cells: KBM7 cells modified in COPS8 or CAND1 versus non-modified control
Description: KBM7 cells mutated for five core genes were isolated and the underlying CRISPR-induced mutations were truncations leading to full knockouts (CAND1) or hypomorphic alleles (UBE2M, COPS8, COPS7B, GPS1). […] The observable shift in efficacy was at least 10-fold and up to 1000-fold, thus providing excellent signal to noise ratios. In sum, neddylation-impaired (NEDD^mut) cell line can be applied to find novel, yet uncharacterized MGs.
This is further exemplified when said cells are treated with the compound CC-885 (a molecular glue that reprograms the substrate receptor cereblon/CRBN to degrade GSPT1), or the PROTAC® compound THAL-SNS-032 (known to reprogram the substrate receptor cereblon/CRBN to degrade the cyclin dependent kinase 9, CDK9) (both see appended FIG. 22).
However, not for every cullin RING ligase (CRL), modifications of the COP9 signalosome subunit 8 (COPS8) or CAND1 (Cullin-associated NEDD8-dissociated protein 1; a substrate receptor exchange factor) lead to an ensuing destabilization via auto-degradation. An example for this is the substrate receptor VHL(von-Hippel-Lindau), which is part of the CRL2^VHL ligase complex. […] Therefore, measuring differential sensitivity of cells manipulated to contain altered neddylation states to a molecular glue/PROTAC® compound is a feasible surrogate to measure whether the substrate receptor that is reprogrammed by said molecular glue/PROTAC® undergoes destabilization/auto-degradation upon altering the neddylation states.

DCAF15 = target: T2, DCAF15 (Homo sapiens, UniProt Q66K64); test: DCAF15 HiBit/LgBit luciferase assay (knock-in or ectopic, live-cell or lytic detection); type: cell-based
T2 construct: expressed in transfected cells
Description: Generation of HiBit DCAF15 knock-in cells: HEK293t WT cells at 70-80% confluency were transiently transfected in a 6 well plate with a mix of 3 ug Cas9-sgRNA vector (PX458, addgene #48138, containing sgRNA [NT]), 6 ug of single stranded oligonucleotide donor (ssOND, 20 bp homology flanking the cut site) and 3.6 ug polyethylenimine (FIGS. 10 and 12). 72 hrs post-transfection cells were sorted (SH800 Cell sorter, SONY) for GFP positive cells and recovered for 24 hrs in media. Cells were subsequently seeded at a limiting dilution to generate single clones. Clones were tested after outgrowth for HiBit expression by seeding clonal cells in a black clear bottom 384 well plate and adding Nano-Glo HiBit Lytic buffer (Promega, N3030) reconstituted with recombinant LgBit and Nano-Glo HiBit Lytic Substrate in a 1:1 ratio. HiBit-expressing clones were validated by western blotting and detection of luciferase signal (Promega, N2410) at the correct size. For live cell luciferase detection (FIGS. 11 and 13) 7000 HEK293t cells with a HiBit knock-in at the N-terminus of DCAF15 and stable ectopic expression of LgBit were seeded in 10 uL per well into a black, clear-bottom 384 well plate (Corning, #3764) and incubated over night. 20 uL of media containing 1× Endurazine (Promega, N2570) was added to each well and incubated for 1 hour followed by a baseline luciferase measurement using an EnVision plate reader (Perkin Elmer). Subsequently CSN5i-3 or an equal volume of DMSO was added in 10 uL of media to a final concentration of 500 nM in the assay volume of 40 uL. Luciferase signal was measured hourly for 24 hours. For lytic HiBit detection (FIGS. 11 and 14) 10000 cells were seeded in 10 uL per well into a black clear bottom 384 well plate. After recovery cells were treated by addition of iCSN5-3 or an equal volume of DMSO in 10 uL of media to the cells. After the indicated treatment time cells were lysed by adding 20 uL Nano-Glo HiBit Lytic buffer (Promega, N3030) reconstituted with recombinant LgBit and Nano-Glo HiBit Lytic Substrate. Luciferase signal of each well was normalized to the mean DMSO luciferase signal yielding fold-change over DMSO. Luciferase signal was detected essentially as stated for FIG. 13 with the exception that indisulam (Sigma-Aldrich, SML1225) was added together with CSN5i-3 to cells in 10 uL of media to reach the indicated final concentration (FIG. 15). Luciferase signal of each well and timepoint was normalized to the mean DMSO luciferase signal yielding fold-change over DMSO. […] Luciferase signal was detected essentially as stated for FIG. 15 with the exception that indisulam and dCEMM.1 were added together with iCSN5-3 to cells in the 10 uL treatment to a final concertation of 10 uM (FIG. 17). Luciferase signal of each well and timepoint was normalized to the mean DMSO luciferase signal yielding fold-change over DMSO.

[3] = system: CRL substrate receptors (SRs) in KBM7 cells; test: Global expression proteomics of substrate receptors after CSN5i-3 treatment; type: cell-based, human; details: 1 μM, 8 h, versus DMSO
Description: In order to survey in an unbiased manner the subset of SRs undergoing autodegradation, global expression proteomics was applied to the different genetic backgrounds: WT, COPS8-mutant and CAND1-deficient KBM7 cells. In addition, expression proteomics following cellular treatment with CSN5i-3 was employed (1 μM, 8 h) (FIG. 1G-I).

CRBN [4] = test: CRBN levels by western blot after CSN5i-3 treatment (autodegradation); type: cell-based, human
Text: As a first approach, the levels of cereblon (CRBN), the SR of the CRL4^CRBN E3 ligase machinery, were checked by western blot (WB) in the mutant backgrounds. A strong decrease in CRBN levels in the COPS8 (COP9 signalosome complex subunit 8)-mutant cells was observed, and a less prominent downregulation in the CAND1-deficient cells (FIG. 1B). […] The CSN-impaired condition was used as a focus as this condition was sought to chemically mimic the genetic mutants. […] CRBN destabilization following CSN5i-3 treatment were rescued in CUL4A-deficient cells (FIG. 1E) or in cells lacking UBE2G1 (ubiquitin-conjugating enzyme E2 G1), a E2 ubiquitin-conjugating enzyme previously related to target degradation via the CRL4^CRBN ligase (FIG. 1F).

CRBN [5] = target: T1, CRBN; test: CRBN HiBit bioluminescence assay in COPS8 knock-out cells (Example 2); type: cell-based; details: 4 hours of compound treatment
Description: Afterwards, CRISPR/Cas9 is used to knock-out the CSN (COP9 signalosome) subunit COPS8 (COP9 signalosome complex subunit 8). Ensuing loss of CRBN HiBit is assayed via immunoblot and loss of bioluminescence. […] After 4 hours of compound treatment, CRBNHiBit levels are assayed via bioluminescence by adding the detection reagent, which consists of a lysis buffer and recombinant LgBit protein. Within 10 minutes after addition of the detection reagent, luminescence is read with a standard plate reader, and is a proxy for drug-induced changes in CRBN levels.

T2 sequence (Q66K64 whole entry): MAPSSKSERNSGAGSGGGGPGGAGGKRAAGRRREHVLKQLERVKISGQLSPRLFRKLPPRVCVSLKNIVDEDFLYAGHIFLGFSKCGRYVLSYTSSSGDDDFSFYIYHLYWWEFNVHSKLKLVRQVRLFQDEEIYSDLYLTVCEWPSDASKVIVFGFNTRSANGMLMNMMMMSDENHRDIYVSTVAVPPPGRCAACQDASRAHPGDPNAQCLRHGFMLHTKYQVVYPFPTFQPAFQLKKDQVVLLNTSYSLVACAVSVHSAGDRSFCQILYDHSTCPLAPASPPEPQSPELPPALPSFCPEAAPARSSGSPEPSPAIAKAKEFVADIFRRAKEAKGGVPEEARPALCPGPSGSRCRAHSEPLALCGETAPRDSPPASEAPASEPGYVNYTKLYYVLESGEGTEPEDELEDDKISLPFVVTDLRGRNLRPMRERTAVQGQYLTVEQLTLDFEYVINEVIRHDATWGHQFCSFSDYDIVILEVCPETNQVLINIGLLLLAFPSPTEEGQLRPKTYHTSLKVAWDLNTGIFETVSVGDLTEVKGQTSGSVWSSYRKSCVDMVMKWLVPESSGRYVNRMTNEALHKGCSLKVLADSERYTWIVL
T1 sequence (Q96SW2 whole entry): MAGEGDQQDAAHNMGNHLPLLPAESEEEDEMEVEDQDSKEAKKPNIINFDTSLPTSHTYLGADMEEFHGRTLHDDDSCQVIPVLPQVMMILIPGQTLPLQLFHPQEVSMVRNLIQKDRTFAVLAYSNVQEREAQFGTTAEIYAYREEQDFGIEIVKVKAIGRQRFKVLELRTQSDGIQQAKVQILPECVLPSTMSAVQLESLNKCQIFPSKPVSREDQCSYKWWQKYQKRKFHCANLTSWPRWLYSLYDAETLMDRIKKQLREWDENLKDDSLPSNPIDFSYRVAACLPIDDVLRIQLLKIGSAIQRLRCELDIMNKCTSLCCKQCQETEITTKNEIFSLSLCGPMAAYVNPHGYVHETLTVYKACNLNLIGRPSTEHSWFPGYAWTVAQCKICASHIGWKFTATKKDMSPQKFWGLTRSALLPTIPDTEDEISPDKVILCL

DCAF15 level (luciferase signal) after CSN5i-3 (DCAF15; live cells, HiBit-HA knock-in at DCAF15 locus, 500 nM)	DCAF15 level (luciferase signal) after CSN5i-3 (DCAF15; lytic detection, HiBit-HA knock-in at DCAF15 locus)	DCAF15 level (luciferase signal) after CSN5i-3 (DCAF15; lytic detection, ectopic overexpression of HiBit-HA-DCAF15)	SMILES	CRBN stabilization (western blot) (CRBN [1])	CRBN stabilization (western blot) (CRBN [2])	Cytotoxic activity / sensitivity in COPS8- or CAND1-modified cells (KBM7 cells)	CRBN abundance (expression proteomics) [3]	Substrate receptors destabilized (expression proteomics) [3]	CRBN level (western blot) after CSN5i-3 (CRBN [4]; CUL4A-deficient cells (sgRNA targeting CUL4A))	CRBN level (western blot) after CSN5i-3 (CRBN [4]; cells lacking UBE2G1 (sgRNA), 100 nM CSN5i-3, 0, 2, 4 and 6 hours)	CRBN level (western blot) (CRBN [4]; cells treated with DMSO, MLN4924 or CSN5i-3)	CRBN HiBit levels (bioluminescence) (CRBN [5])	Resistance of mutant cells in cellular viability assay (KBM7 cells; KBM7 cells mutated in CAND1, UBE2M, COPS8, COPS7B or GPS1 versus wild type)
–	–	–	Cc1ccc(NC(=O)NCc2ccc3c(c2)CN(C2CCC(=O)NC2=O)C3=O)cc1Cl (stereo not drawn) [CC-885]	time-dependent stabilization of CRBN; also recorded: CRBN was stabilized upon CC-885 treatment in cells treated with DMSO, 25 nM, 100 nM and 500 nM CSN5i-3	protects from CRBN auto-degradation; also recorded: CRBN was stabilized upon CC-885 treatment in the presence of CSN5i-3	reduced activity; also recorded: lose their cytotoxic activity	–	–	–	–	–	–	–
DCAF15 destabilization	DCAF15 destabilization	DCAF15 destabilization	CC(C)n1nc(C(F)F)cc1C(=O)Nc1ccc([C@H]2[C@@H](O)CCCc3cncn32)c(-c2ccccc2)c1 [CSN5i-3]	–	–	–	Downregulation of CRBN	only affected a subset of the SRs associated to each of the cullins	Downregulation of CRBN is rescued	rescued in cells treated with two sgRNAs targeting UBE2G1	recapitulate CRBN downregulation; also recorded: Downregulation of CRBN is recapitulated	–	–
–	–	–	Cc1sc2c(c1C)C(c1ccc(Cl)cc1)=N[C@@H](CC(=O)NCCCCCCCCNC(=O)COc1cccc3c1C(=O)N(C1CCC(=O)NC1=O)C3=O)c1nnc(C)n1-2 (stereo partly drawn) [dBET6]	time-dependent stabilization of CRBN; also recorded: CRBN was stabilized upon dBET6 treatment in cells treated with DMSO, 25 nM and 100 nM CSN5i-3	–	reduced activity; also recorded: lose their cytotoxic activity	–	–	–	–	–	quick stabilization of CRBN HiBit levels	caused resistance
